Columns and labels:
[1] = human
[2] = human; remark: listed apart in the source
[3] = human; remark: listed apart in the source
[4] = human; remark: listed apart in the source
[5] = human, serum, 4383 h
[6] = human; remark: listed apart in the source
[7] = Highest frequency of moderate liver toxicity observed during clinical trials, expressed as a percentage. [column '% BIOL' in source]; conditions: human
[8] = human, serum
[9] = human; remark: listed apart in the source
[10] = human; remark: listed apart in the source
[11] = human; remark: listed apart in the source
[12] = human, serum; remark: listed apart in the source
[13] = human; remark: listed apart in the source
[14] = Highest frequency of acute liver toxicity observed during clinical trials, expressed as a percentage. [column '% AIGUE' in source]; conditions: human
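Wherever Hepatotoxicity (association with vascular disease) is given: count of indexed literature references reporting vascular liver injury in humans, e.g. peliosis hepatitis, hepatic veno-occlusive disease or Budd-Chiari syndrome.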
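Wherever Hepatotoxicity (benign tumour) is given: value is a count of indexed literature references citing a benign tumour confirmed by histopathology.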
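Wherever Hepatotoxicity (choleostasis) is given: human cholestatic liver injury, shown by histopathology or by peak ALT or AST elevation over alkaline phosphatase ratio below 2, value counts indexed literature reports.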
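Wherever Hepatotoxicity (chronic liver disease) is given: chronic liver injury confirmed by histopathology or persistently raised serum aminotransferase activity beyond 6 months, value given as the count of indexed literature references.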
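Wherever Hepatotoxicity (cirrhosis) is given: value is a count of indexed literature references reporting cirrhosis confirmed by histopathology.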
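Wherever Hepatotoxicity (cytolytic) is given: human cytolytic liver injury, shown by histopathology or by a ratio above 5 of peak ALT or AST elevation to alkaline phosphatase elevation, value counts indexed references.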
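Wherever Hepatotoxicity (granulomatous hepatitis) is given: value is a count of indexed literature references reporting granulomatous liver disease confirmed by histopathology.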
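Wherever Hepatotoxicity (malignant tumour) is given: malignant tumour confirmed by histopathology, value gives the count of indexed literature references reporting it.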
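Wherever Hepatotoxicity (severe hepatitis) is given: human clinical data: severe hepatitis, meaning potentially life-threatening liver failure or clinically observed cases, the value counts how many indexed literature references report it.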
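Wherever Hepatotoxicity (steatosis) is given: steatosis confirmed by histopathology, value is the count of indexed references.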

Compound	Hepatotoxicity (association with vascular disease) [1]	Hepatotoxicity (cirrhosis) [2]	Hepatotoxicity (granulomatous hepatitis) [3]	Hepatotoxicity (cytolytic) [4]	Hepatotoxicity (chronic liver disease) [5]	Hepatotoxicity (severe hepatitis) [6]	Hepatotoxicity (moderate) [7]	Hepatotoxicity (moderate) [8]	Hepatotoxicity (steatosis) [9]	Hepatotoxicity (malignant tumour) [10]	Hepatotoxicity (benign tumour) [11]	Hepatotoxicity (acute) [12]	Hepatotoxicity (choleostasis) [13]	Hepatotoxicity (acute) [14]	Hepatotoxicity (severe hepatitis) ([6]; Liver)	Hepatotoxicity (moderate) ([7]; Liver)	Hepatotoxicity (acute) ([14]; Liver)
TINZAPARIN SODIUM	0	0	0	0	0	0	35%	3	0	0	0	0	0	0%	–	–	–
CO/N=C(\C(=O)N[C@@H]1C(=O)N2C(C(=O)[O-])=C(C[n+]3ccc(N)n3CCO)CS[C@H]12)c1csc(N)n1 [CEFOSELIS]	0	0	0	0	0	0	25%	33	0	0	0	0	0	0%	–	–	–
CC(C)(C#N)c1cc(Cn2cncn2)cc(C(C)(C)C#N)c1 [ANASTROZOLE]	0	0	0	0	0	0	0%	1	0	0	0	0	0	0%	–	–	–
Oc1ccc2[nH]cc(CCCCN3CC=C(c4ccccc4)CC3)c2c1 [ROXINDOLE]	0	0	0	0	0	0	10%	1	0	0	0	0	0	0%	–	–	–
COc1cc2nc(N3CCN(C(=O)C4COc5ccccc5O4)CC3)nc(N)c2cc1OC (centres undefined) [DOXAZOSIN]	0	0	0	0	0	0	2.9%	2	0	0	0	0	0	0%	–	–	–
CC(CN1c2ccccc2Sc2ccccc21)N(C)C (centres undefined) [PROMETHAZINE]	0	0	0	0	0	0	0%	0	0	0	0	2	0	0%	–	–	–
CCCC[C@@H]1CC(=O)[C@]2(O)O[C@@H]3[C@@H](NC)[C@@H](O)[C@@H](NC)[C@H](O)[C@H]3O[C@@H]2O1 [TROSPECTOMYCIN]	0	0	0	0	0	0	33.3%	2	0	0	0	0	0	0%	–	–	–
C#CC(O)(/C=C/Cl)CC (centres undefined) [ETHCHLORVYNOL]	0	0	0	0	0	0	0%	0	0	0	0	2	2	0%	–	–	–
CNn1cc(C(=O)O)c(=O)c2cc(F)c(N3CCN(C)CC3)cc21 [AMIFLOXACIN]	0	0	0	1	0	–	–	1	0	0	0	1	0	–	0	5%	1.7%
CO[C@@]1(NC(=O)CSCC#N)C(=O)N2C(C(=O)O)=C(CSc3nnnn3C)CS[C@@H]21 [CEFMETAZOLE]	0	0	0	0	0	0	9.1%	5	0	0	0	0	0	0%	–	–	–
O=C(COCC(=O)Nc1c(I)cc(I)c(C(=O)O)c1I)Nc1c(I)cc(I)c(C(=O)O)c1I [IOGLYCAMIC ACID]	0	0	0	0	0	0	0%	1	0	0	0	0	0	0%	–	–	–
O=C(NCCN1CCC(n2c(=O)[nH]c3cc(Cl)ccc32)CC1)c1ccc(F)cc1 [HALOPEMIDE]	0	0	0	0	0	0	27%	1	0	0	0	0	0	0%	–	–	–
NARTOGRASTIM	0	0	0	0	0	0	0%	1	0	0	0	0	0	0%	–	–	–
CCN1CCN(C(=O)N[C@@H](C(=O)N[C@@H]2C(=O)N3[C@@H]2SC(C)(C)[C@@H]3C(=O)O)c2ccccc2)C(=O)C1=O.C[C@]1(Cn2ccnn2)[C@H](C(=O)O)N2C(=O)C[C@H]2S1(=O)=O	0	0	0	0	0	0	33.3%	46	0	0	0	0	0	0%	–	–	–
CC(N)C12CC3CC(CC(C3)C1)C2 (centres undefined) [RIMANTADINE]	0	0	0	0	0	0	1.8%	1	0	0	0	0	0	0%	–	–	–
CC[C@@]1(O)C(=O)OCc2c1cc1n(c2=O)Cc2cc3c(CN(C)C)c(O)ccc3nc2-1 [TOPOTECAN]	0	0	0	0	0	0	5.3%	1	0	0	0	0	0	0%	–	–	–

From ChEMBL document CHEMBL3137667, “[Drug-induced liver injury; fourteenth updated edition of the bibliographic database of liver injuries and related drugs]” (Gastroenterol Clin Biol, 2004)
